The values below come from patent US8809554B2, “Process for the preparation of sulfamide derivatives” (Janssen Pharmaceutica NV, priority 2011, dated 2014).

Values joined by “and” are separate entries in the source; they are usually repeats but may differ in a detail not shown here. Identical values can stand only once.

This data set can be described thus: Solubility of the compound of formula (I-S) in toluene as a function of OPPh3 concentration. In kind it is physicochemical. To be noted: 21° C.

For `NS(=O)(=O)NC[C@H]1COc2cc(Cl)ccc2O1` [compound of formula (I-S), N-[[(2S)-6-chloro-2,3-dihydro-1,4-benzodioxin-2-yl]methyl]-sulfamide], the “Solubility (g/100 g toluene)” value is, setting by setting: (OPPH3 0.05 mol/L) 1.6 g/100 g toluene; (OPPH3 0.10 mol/L) 2.3 g/100 g toluene; (OPPH3 0.15 mol/L) 4.2 g/100 g toluene; (OPPH3 0.20 mol/L) 5.9 g/100 g toluene and 5.0 g/100 g toluene; (OPPH3 0.25 mol/L) 6.0 g/100 g toluene; (OPPH3 0.30 mol/L) 8.2 g/100 g toluene. Besides, the “Solubility (g/100 g toluene)” value (OPPH3 0.40 mol/L) was 9.6 g/100 g toluene. Moreover, under “OPPh3 0.05-0.40 mol/L”, the “Solubility, trend with OPPh3 concentration” value was “increases with increased OPPh3 concentration”.
